Reference: the NIST ThermoML archive (doi:10.1021/je200811n)

Conditions: Hot wire method

C=C(F)C(F)(F)F [2,3,3,3-tetrafluoro-1-propene]
Conditions | thermal conductivity [W/m/K]
342.27 K, 1904 kPa, Gas | 0.01971
342.28 K, 12111 kPa, Liquid | 0.06144
342.29 K, 302 kPa, Gas | 0.0175
342.29 K, 1736 kPa, Gas | 0.01924
342.29 K, 1903 kPa, Gas | 0.01966
342.32 K, 459 kPa, Gas | 0.01763
342.32 K, 17157 kPa, Liquid | 0.06503
342.34 K, 1573 kPa, Gas | 0.01875
342.34 K, 2096 kPa, Liquid | 0.05065
342.36 K, 21715 kPa, Liquid | 0.06785
342.4 K, 8195 kPa, Liquid | 0.05822
342.43 K, 1404 kPa, Gas | 0.01834
342.44 K, 12112 kPa, Liquid | 0.06137
342.47 K, 949 kPa, Gas | 0.01781
342.47 K, 1242 kPa, Gas | 0.01809
342.5 K, 813 kPa, Gas | 0.01767
342.5 K, 1096 kPa, Gas | 0.01796
342.51 K, 1904 kPa, Gas | 0.01989
342.52 K, 1841 kPa, Gas | 0.01962
342.52 K, 1904 kPa, Gas | 0.01982
342.52 K, 5181 kPa, Liquid | 0.05511
342.54 K, 939 kPa, Gas | 0.01779
342.55 K, 1735 kPa, Gas | 0.01923
342.56 K, 303 kPa, Gas | 0.01766
342.56 K, 8193 kPa, Liquid | 0.05802
342.6 K, 17155 kPa, Liquid | 0.06501
342.61 K, 1572 kPa, Gas | 0.01878
342.63 K, 201 kPa, Gas | 0.01782
342.63 K, 21712 kPa, Liquid | 0.06777
342.66 K, 458 kPa, Gas | 0.01768
342.66 K, 2094 kPa, Liquid | 0.05079
342.69 K, 5181 kPa, Liquid | 0.05482
342.72 K, 1403 kPa, Gas | 0.01842
342.73 K, 12110 kPa, Liquid | 0.06135
342.75 K, 102 kPa, Gas | 0.01803
342.77 K, 1903 kPa, Gas | 0.01985
342.77 K, 17154 kPa, Liquid | 0.06488
342.78 K, 1241 kPa, Gas | 0.01818
342.78 K, 1841 kPa, Gas | 0.01962
342.79 K, 948 kPa, Gas | 0.01785
342.79 K, 1904 kPa, Gas | 0.01984
342.79 K, 21708 kPa, Liquid | 0.06775
342.82 K, 1095 kPa, Gas | 0.01798
342.83 K, 812 kPa, Gas | 0.01775
342.83 K, 1734 kPa, Gas | 0.01925
342.86 K, 939 kPa, Gas | 0.01784
342.86 K, 8191 kPa, Liquid | 0.05808
342.89 K, 1571 kPa, Gas | 0.01877
342.9 K, 12107 kPa, Liquid | 0.06122
342.91 K, 302 kPa, Gas | 0.01773
343.01 K, 201 kPa, Gas | 0.01784
343.01 K, 5178 kPa, Liquid | 0.05499
343.02 K, 458 kPa, Gas | 0.0177
343.03 K, 1402 kPa, Gas | 0.01843
343.03 K, 1903 kPa, Gas | 0.01984
343.05 K, 8190 kPa, Liquid | 0.05781
343.05 K, 17151 kPa, Liquid | 0.06493
343.06 K, 1840 kPa, Gas | 0.01962
343.06 K, 1904 kPa, Gas | 0.01984
343.06 K, 21708 kPa, Liquid | 0.06763
343.1 K, 1240 kPa, Gas | 0.01819
343.12 K, 946 kPa, Gas | 0.01784
343.12 K, 1733 kPa, Gas | 0.0192
343.14 K, 1094 kPa, Gas | 0.01802
343.15 K, 102 kPa, Gas | 0.01805
343.17 K, 2093 kPa, Liquid | 0.05051
343.19 K, 810 kPa, Gas | 0.0178
343.2 K, 938 kPa, Gas | 0.0179
343.2 K, 12105 kPa, Liquid | 0.06126
343.21 K, 1570 kPa, Gas | 0.01879
343.21 K, 5176 kPa, Liquid | 0.05461
343.25 K, 17149 kPa, Liquid | 0.06474
343.25 K, 21706 kPa, Liquid | 0.06757
343.29 K, 302 kPa, Gas | 0.01776
343.29 K, 606 kPa, Gas | 0.01775
343.35 K, 1401 kPa, Gas | 0.01847
343.36 K, 8188 kPa, Liquid | 0.05795
343.39 K, 2092 kPa, Liquid | 0.05007
343.4 K, 200 kPa, Gas | 0.01785
343.41 K, 459 kPa, Gas | 0.01776
343.41 K, 12104 kPa, Liquid | 0.06108
343.43 K, 1239 kPa, Gas | 0.01822
343.48 K, 945 kPa, Gas | 0.01791
343.49 K, 1093 kPa, Gas | 0.01807
343.53 K, 5176 kPa, Liquid | 0.05477
343.55 K, 809 kPa, Gas | 0.01783
343.55 K, 937 kPa, Gas | 0.01797
343.56 K, 102 kPa, Gas | 0.01807
343.58 K, 8186 kPa, Liquid | 0.0576
343.68 K, 606 kPa, Gas | 0.0178
343.69 K, 302 kPa, Gas | 0.01781
343.72 K, 2091 kPa, Liquid | 0.05023
343.77 K, 5174 kPa, Liquid | 0.05432
343.8 K, 200 kPa, Gas | 0.0179
343.8 K, 459 kPa, Gas | 0.0178
343.99 K, 2090 kPa, Liquid | 0.05015
344 K, 103 kPa, Gas | 0.01811
344.09 K, 302 kPa, Gas | 0.01783
344.23 K, 199 kPa, Gas | 0.01797
344.46 K, 103 kPa, Gas | 0.01816

Conditions | thermal conductivity [W/m/K]
343.15 K, Liquid | 0.05091
